“And” between values parts separate entries of the source, which are not always exact repeats. Identical values can stand only once. Like-named read-outs stand apart in the source and are kept apart here.
How the values were obtained:
p38α MAPK [1] = target: p38α MAPK
hAChE [2] = target: T1, hAChE (Homo sapiens, UniProt P22303); test: biochemical; details: hAChE IC50 ± SEM, two independent experiments, each in triplicate
Experimental: (§1) The inhibitory potencies of the compounds against the ChEs were determined using the method of Ellman. […] The final content of DMSO was always 1% [v/v]. […] The initial velocities in the presence (v i ) and absence (v 0) of the test compounds were calculated. The inhibitory potencies were expressed as the residual activities, according to RA = (v i – b)/(v 0 – b), where b is the blank value using phosphate buffer without ChEs. For IC50 determinations, at least seven different concentrations for each compound were used. The IC50 values were obtained by plotting the residual ChE activities against the applied inhibitor concentrations, with the experimental data fitted to a four-parameter logistic function (GraphPad Prism 10.0).

human p38α MAPK [3] = target: T2, human p38α MAPK (Homo sapiens, UniProt Q16539); test: biochemical; details: p38α MAPK IC50 ± SEM, two independent experiments, each in triplicate
Experimental: (§2) The inhibitory activities against human p38α MAPK were evaluated using the commercially available ADP-Glo Kinase Assay (Promega, Inc., USA).
(§3) For the reference sample, 1% [v/v] DMSO replaced the inhibitor solution. […] The enzyme reaction was started with the addition of the enzyme solution. The DMSO concentration in the test solution was maintained at 1% [v/v]. The plate was incubated for 60 min. Then 5 μL of ADP-Glo reagent was added, followed by a 40 min incubation at room temperature. […] All incubations were performed at room temperature. The RA and IC50 values were calculated as described above (ChEs inhibitory potency).

hBChE [4] = target: T3, hBChE (Homo sapiens, UniProt P06276); test: biochemical; details: hBChE IC50 ± SEM, two independent experiments, each in triplicate
Experimental: as §1

hAChE [5] = target: hAChE
human p38α MAPK [6] = target: T2, human p38α MAPK; details: for p38α MAPK RA at 100 μM: residual activity at 100 μM, mean ± SD, one experiment in triplicate
Experimental: as §2, §3

hBChE [7] = target: hBChE
hAChE [8] = target: T1, hAChE; details: residual activity at 100 μM; mean ± SD, one experiment in triplicate
Experimental: as §1

hAChE [9] = target: hAChE; remark: listed apart in the source
p38α MAPK [10] = target: p38α MAPK; remark: listed apart in the source
hBChE [11] = target: T3, hBChE; details: for hBChE RA at 100 μM: residual activity at 100 μM, mean ± SD, one experiment in triplicate
Experimental: as §1

hBChE [12] = target: hBChE; remark: listed apart in the source

T1 sequence (P22303 32-614): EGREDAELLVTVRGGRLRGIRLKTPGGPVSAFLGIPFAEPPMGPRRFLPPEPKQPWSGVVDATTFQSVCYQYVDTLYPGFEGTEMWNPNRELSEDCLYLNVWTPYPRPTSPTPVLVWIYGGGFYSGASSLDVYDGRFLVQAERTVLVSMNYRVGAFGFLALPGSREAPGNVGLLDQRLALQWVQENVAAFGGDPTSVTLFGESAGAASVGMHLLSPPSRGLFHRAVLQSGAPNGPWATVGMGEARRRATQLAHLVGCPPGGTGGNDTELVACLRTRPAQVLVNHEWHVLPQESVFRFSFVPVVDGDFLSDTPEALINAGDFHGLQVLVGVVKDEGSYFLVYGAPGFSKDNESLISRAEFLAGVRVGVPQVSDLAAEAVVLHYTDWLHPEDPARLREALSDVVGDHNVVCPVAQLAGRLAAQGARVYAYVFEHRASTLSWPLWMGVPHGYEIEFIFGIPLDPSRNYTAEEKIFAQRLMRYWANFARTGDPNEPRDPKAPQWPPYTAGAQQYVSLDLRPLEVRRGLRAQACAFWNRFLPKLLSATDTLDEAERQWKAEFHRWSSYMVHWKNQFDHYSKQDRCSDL
T2 sequence (Q16539 whole entry): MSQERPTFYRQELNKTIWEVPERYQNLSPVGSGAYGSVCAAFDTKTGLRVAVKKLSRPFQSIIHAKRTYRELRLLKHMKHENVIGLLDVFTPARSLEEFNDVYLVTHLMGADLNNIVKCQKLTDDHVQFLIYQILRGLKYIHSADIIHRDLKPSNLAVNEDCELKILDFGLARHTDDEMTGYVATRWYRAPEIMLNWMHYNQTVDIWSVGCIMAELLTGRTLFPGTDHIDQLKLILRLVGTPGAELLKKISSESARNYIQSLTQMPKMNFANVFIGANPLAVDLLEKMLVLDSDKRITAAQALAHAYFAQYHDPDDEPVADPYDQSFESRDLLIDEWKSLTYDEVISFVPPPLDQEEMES
T3 sequence (P06276 29-602): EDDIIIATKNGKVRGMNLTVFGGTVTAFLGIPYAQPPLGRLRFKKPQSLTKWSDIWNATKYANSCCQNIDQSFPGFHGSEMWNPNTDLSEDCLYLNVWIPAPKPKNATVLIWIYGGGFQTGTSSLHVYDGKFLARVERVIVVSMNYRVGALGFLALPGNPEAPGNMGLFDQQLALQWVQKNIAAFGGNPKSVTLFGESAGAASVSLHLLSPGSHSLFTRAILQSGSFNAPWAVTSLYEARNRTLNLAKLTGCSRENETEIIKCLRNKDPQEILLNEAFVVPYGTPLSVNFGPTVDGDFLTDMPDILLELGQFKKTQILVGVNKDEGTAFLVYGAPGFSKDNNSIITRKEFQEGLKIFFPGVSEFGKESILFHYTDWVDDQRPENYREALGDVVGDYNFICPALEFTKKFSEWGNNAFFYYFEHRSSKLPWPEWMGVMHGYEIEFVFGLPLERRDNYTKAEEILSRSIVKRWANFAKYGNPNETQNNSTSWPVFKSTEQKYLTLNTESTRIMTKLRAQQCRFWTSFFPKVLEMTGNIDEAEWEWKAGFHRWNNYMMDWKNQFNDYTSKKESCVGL

Row | Compound | IC50 (hAChE [2]) [µM] | IC50 (human p38α MAPK [3]) [µM] | IC50 (hBChE [4]) | p38α MAPK RA at 100 μM (human p38α MAPK [6]) | RA at 100 µM (p38α MAPK [1]) [%] | hAChE RA at 100 μM (hAChE [8]) | RA at 100 µM (hAChE [5]) [%] | other results
1 | CN(C)CCCNC(=O)c1cc2c(cnn2CC2CC2)cc1Oc1ccc(F)cc1F [Compound 74, 1-(Cyclopropylmethyl)-5-(2,4-difluorophenoxy)-N-(3-(dimethylamino)propyl)-1H-indazole-6-carboxamide] | 110 ± 38.4 | 0.096 ± 0.011 | 8.68 ± 1.83 µM | – | – | – | – | IC50 (p38α MAPK [1]): 0.096 µM; IC50 (hAChE [5]): 110 µM
2 | O=C(NCCN1CCOCC1)c1cc2nn(CC3CCCCC3)cc2cc1Oc1ccc(F)cc1F [Compound 103] | – | – | 10.8 ± 2.07 µM | 66.8% and 66.8 ± 5.9% | 66.8 ± 5.9 | 78.3 ± 2.1% | 78.3 ± 2.1 | IC50 (hBChE [7]): 10.8 µM
3 | CN(C)CCNC(=O)c1cc2nn(CC3CCCCC3)cc2cc1Oc1ccc(F)cc1F [Compound 99, 2-(Cyclohexylmethyl)-5-(2,4-difluorophenoxy)-N-(2-(dimethylamino)ethyl)-2H-indazole-6-carboxamide] | 28.9 ± 8.16 | 6.78 ± 2.85 | 0.167 ± 0.0203 µM | – | – | – | – | IC50 (hAChE [9]): 28.9 µM; IC50 (p38α MAPK [10]): 6.78 µM
4 | CC(C)Cn1ncc2cc(S(=O)(=O)c3ccc(F)cc3F)c(C(=O)NCCN(C)C)cc21 [Compound 93, 5-((2,4-Difluorophenyl)sulfonyl)-N-(2-(dimethylamino)ethyl)-1-isobutyl-1H-indazole-6-carboxamide] | – | – | – | 5.9 ± 0.2% | 5.9 ± 0.2 | 98.0% and 98.0 ± 2.7% | 98.0 ± 2.7 | hBChE RA at 100 μM (hBChE [11]): 77.6% and 77.6 ± 3.1%; RA at 100 µM (hBChE [7]): 77.6 ± 3.1%
5 | Methyl-1-(cyclopropylmethyl)-5-(2,4-difluorophenoxy)-1H-indazole-6-carboxylate [Compound 27] | – | – | – | – | – | 81.1% and 81.1 ± 2.3% | – | IC50 (human p38α MAPK [6]; read-out: p38α MAPK IC50 ± SEM, two independent experiments, each in triplicate): 0.33 ± 0.158 µM; hBChE RA at 100 μM (hBChE [11]): 76.6% and 76.6 ± 11.7%
6 | COC1CCCN(CCNC(=O)c2cc3nn(CC4CCCCC4)cc3cc2Oc2ccc(F)cc2F)C1 (stereo not drawn) [Compound 101] | – | – | 0.184 ± 0.031 µM | 94.3% and 94.3 ± 2.4% | 94.3 ± 2.4 | 51.8 ± 1.6% | 51.8 ± 1.6 | IC50 (hBChE [7]): 0.184 µM
7 | CC(C)Cn1ncc2cc(Sc3ccc(F)cc3F)c(C(=O)NCCN(C)C)cc21 [Compound 92, 5-((2,4-Difluorophenyl)thio)-N-(2-(dimethylamino)ethyl)-1-isobutyl-1H-indazole-6-carboxamide] | – | 0.053 ± 0.017 | 2.25 µM | – | – | 62.8% and 63 ± 3% and 62.8 ± 3.0% | 62.8 ± 3.0 | RA at 100 µM (hAChE [9]): 63 ± 3%; IC50 (hBChE [12]): 2.25 µM; IC50 (p38α MAPK [10]): 0.053 µM; IC50 (hBChE [7]): 2.25 µM
8 | CN(C)CCNC(=O)c1cc2c(cnn2C2C=CCCC2)cc1Oc1ccc(F)cc1F (stereo not drawn) [Compound 83, 1-(Cyclohex-2-en-1-yl)-5-(2,4-difluorophenoxy)-N-(2-(dimethylamino)ethyl)-1H-indazole-6-carboxamide] | – | 0.088 ± 0.02 | 8.35 µM | – | – | 52.9% and 53 ± 3% and 52.9 ± 2.7% | 52.9 ± 2.7 | RA at 100 µM (hAChE [9]): 53 ± 3%; IC50 (hBChE [12]): 8.35 µM; IC50 (p38α MAPK [10]): 0.088 µM; IC50 (hBChE [7]): 8.35 µM
9 | 5-(2,4-Difluorobenzyl)-N-(2-(dimethylamino)ethyl)-1-methyl-2H-indazole-6-carboxamide [Compound 109] | – | – | – | 89.6% and 89.6 ± 13.6% | – | 81.4 ± 7.5% | – | IC50 (hBChE [11]; read-out: hBChE IC50 ± SEM, two independent experiments, each in triplicate): 1.06 ± 0.97 µM
10 | CO/N=C(\C(=O)N[C@@H]1C(=O)N2C(C(=O)O)=C(COC(N)=O)CS[C@H]12)c1ccco1 [Cefuroxime, reference compound] | – | – | – | – | – | – | – | CNS (+/–) (PAMPA): CNS– (key: CNS+ indicates high predicted BBB permeation [Pe (×10–6 cm/s) > 4.0]; CNS– indicates low predicted BBB permeation [Pe (×10–6 cm/s) < 2.0])
11 | CN(C)CCCNC(=O)c1cc2nn(CC3CCCCC3)cc2cc1Oc1ccc(F)cc1F [Compound 100, 2-(Cyclohexylmethyl)-5-(2,4-difluorophenoxy)-N-(3-(dimethylamino)propyl)-2H-indazole-6-carboxamide] | 41.9 ± 13.9 | 16.2 ± 2.97 | 0.499 ± 0.045 µM | – | – | – | – | IC50 (p38α MAPK [1]): 16.2 µM; IC50 (hAChE [5]): 41.9 µM
12 | CN(C)CCNC(=O)c1cc2c(cnn2CC2CC2)cc1Oc1ccc(F)cc1F [Compound 73, 1-(Cyclopropylmethyl)-5-(2,4-difluorophenoxy)-N-(2-(dimethylamino)ethyl)-1H-indazole-6-carboxamide] | 83.9 ± 28.9 | 0.362 ± 0.139 | 10.5 ± 1.51 µM | – | – | – | – | IC50 (hAChE [9]): 83.9 µM; IC50 (p38α MAPK [10]): 0.362 µM
13 | N-(2-(1H-Pyrrol-1-yl)ethyl)-1-(cyclohexylmethyl)-5-(2,4-difluorophenoxy)-2H-indazole-6-carboxamide [Compound 104] | – | – | – | 81.2% and 81.2 ± 6.6% | – | 67.6 ± 2.3% | – | hBChE RA at 100 μM (hBChE [11]): 34.4±1.5%
14 | O/N=C/c1cc[n+](COC[n+]2ccc(/C=N/O)cc2)cc1 [Obidoxime, reference compound] | – | – | – | – | – | – | – | CNS (+/–) (predicted BBB permeation from Pe): CNS– (CNS– indicates low predicted BBB permeation [Pe (×10–6 cm/s) < 2.0])
15 | CC(C)Cn1ncc2cc(Oc3ccc4ccccc4c3)c(C(=O)NCCN(C)C)cc21 [Compound 90, N-(2-(Dimethylamino)ethyl)-1-isobutyl-5-(naphthalen-2-yloxy)-1H-indazole-6-carboxamide] | 116 ± 27.8 | – | 11.5 ± 2 µM | 9.5 ± 0.6% | 9.5 ± 0.6 | – | – | IC50 (hAChE [5]): 116 µM
16 | CN(C)CCNC(=O)c1cc2c(cnn2CC2CCCCC2)cc1Oc1ccc(F)cc1F [Compound 75, 1-(Cyclohexylmethyl)-5-(2,4-difluorophenoxy)-N-(2-(dimethylamino)ethyl)-1H-indazole-6-carboxamide] | 64.4 ± 24.5 | 0.142 ± 0.079 | 2.89 µM and 2.9 µM | – | – | – | – | IC50 (hAChE [9]): 64.4 µM; IC50 (p38α MAPK [10]): 0.142 µM; IC50 (hAChE [5]): 64.4 µM
17 | COc1ccc(Oc2cc3cnn(CC(C)C)c3cc2C(=O)NCCN(C)C)cc1 [Compound 91, N-(2-(Dimethylamino)ethyl)-1-isobutyl-5-(4-methoxyphenoxy)-1H-indazole-6-carboxamide] | – | – | – | 0.9 ± 0.3% | 0.9 ± 0.3 | 75.2% and 75.2 ± 3.8% | 75.2 ± 3.8 | hBChE RA at 100 μM (hBChE [11]): 54.1% and 54.1 ± 1.3%; RA at 100 µM (hBChE [7]): 54.1 ± 1.3%
18 | CC(C)Cn1ncc2cc(Oc3cccc4ccccc34)c(C(=O)NCCN(C)C)cc21 [Compound 89, N-(2-(Dimethylamino)ethyl)-1-isobutyl-5-(naphthalen-1-yloxy)-1H-indazole-6-carboxamide] | 61.3 | – | 10.6 µM | 0.9 ± 0.3% and 1 ± 0% | 0.9 ± 0.3 | – | – | p38α MAPK RA (1 μM) (human p38α MAPK [6]; residual activity at 1 μM): 24 ± 0%; p38α MAPK RA (10 μM) (human p38α MAPK [6]; residual activity at 10 μM): 5 ± 0%; IC50 (hAChE [9]): 61.3 µM; RA (1 μM) (p38α MAPK [10]): RA (1 μM): 24 ± 0%; RA (10 μM) (p38α MAPK [10]): RA (10 μM): 5 ± 0%; RA (100 μM) (p38α MAPK [10]): RA (100 μM): 1 ± 0%; IC50 (hAChE [5]): 61.3 µM
